Assay results reported in the NIST ThermoML archive (doi:10.1016/j.jct.2013.06.018).

Experiment: excess molar enthalpy (molar enthalpy of mixing); xn = mol fraction of the nth substance listed
Conditions: 298.15 K, 101 kPa, Liquid, Calvet calorimetry

CCCCCCC [heptane] + CCCO
Conditions	excess molar enthalpy [kcal/mol]
x2 = 0.0699	0.102
x2 = 0.1182	0.125
x2 = 0.2088	0.148
x2 = 0.3839	0.158
x2 = 0.4743	0.152
x2 = 0.5332	0.142
x2 = 0.6744	0.115
x2 = 0.7196	0.103
x2 = 0.7698	0.0906
x2 = 0.7701	0.0884
x2 = 0.8193	0.0719
x2 = 0.8566	0.0605
x2 = 0.8909	0.0483
x2 = 0.8974	0.0464
x2 = 0.9343	0.0308
x2 = 0.9675	0.016
